One molecule from patent US20260248799A1, “COMBINATIONS OF RETINALDEHYDE DEHYDROGENASE 1 (RALDH1) INHIBITORS AND IMMUNOSTIMULATORS AND METHODS USING SAME” (The Trustees of the University of Pennsylvania, priority 2023, published 2026) can be followed below.

One assay concerns Transporter, Adenosine. As to the kind of experiment: Safetyscreen: Adenosine transporter. Type of assay: binding, guinea pig. The following applies: 10 μM.
Another assay addresses T1, Adrenergic α1B (Rattus norvegicus, UniProt P15823).
T1 construct: Eurofins Cerep Panlabs (contract panel)
As to the kind of experiment: Safetyscreen: Adrenergic α1B. Type of assay: binding. To be noted: read-out: % Inh. Adrenergic α1B.

The next assay relates to SNU398 human HCC cells. The experiment in a line: AldeRed (Aldefluor) assay in SNU398 cells. Type of assay: cell-based. The protocol: The AldeRed assay (EMD Millipore) was performed according to manufacturer's instructions to identify cells with ALDH activity. In brief, single-cell suspensions of Huh7, Huh1, SNU449, SNU398, HEP3B, PLC, Hepa 1-6, Hep55, and AL458A cultured cells or single-cell suspension generated from enzymatic digestion of tumors generated from transplantation of these cells in mice (as indicated in figure legends) were incubated with a fluorescent and non-toxic ALDH substrate (AldeRed 588-A); the fluorescent product accumulates in cells proportional to their ALDH activity. The amount of fluorescence produced is measured by flow cytometry. The ALDH inhibitor diethylaminobenzaldehyde (DEAB, provided with the AldeRed assay kit) was used as a negative control for background fluorescence assessment.
The Aldefluor assay has been used to identify and isolate cells with high ALDH activities. This assay is based on the principle that ALDH can convert the ALDH-substrate, Bodipy-aminoacetaldehyde (BAAA) into Bodipy-aminoacetate (BAA) which is retained inside the cells. BAAA is uncharged and can diffuse freely into intact viable cells, however BAA cannot cross the membrane due to its net negative charge, which makes remain in the cells and the assay buffer prevents efflux of the BAA from the cells. Therefore, the amount of BAA fluorescence in cells is proportional to ALDH activity and can be measured using a flow cytometer. A specific inhibitor of ALDH, diethylaminobenzaldehyde (DEAB), is used for background fluorescence control.

The target of another assay is T2, Cyclooxygenase COX-1 (Homo sapiens, UniProt P23219).
T2 construct: Eurofins Cerep Panlabs (contract panel)
T2 sequence (P23219 24-599): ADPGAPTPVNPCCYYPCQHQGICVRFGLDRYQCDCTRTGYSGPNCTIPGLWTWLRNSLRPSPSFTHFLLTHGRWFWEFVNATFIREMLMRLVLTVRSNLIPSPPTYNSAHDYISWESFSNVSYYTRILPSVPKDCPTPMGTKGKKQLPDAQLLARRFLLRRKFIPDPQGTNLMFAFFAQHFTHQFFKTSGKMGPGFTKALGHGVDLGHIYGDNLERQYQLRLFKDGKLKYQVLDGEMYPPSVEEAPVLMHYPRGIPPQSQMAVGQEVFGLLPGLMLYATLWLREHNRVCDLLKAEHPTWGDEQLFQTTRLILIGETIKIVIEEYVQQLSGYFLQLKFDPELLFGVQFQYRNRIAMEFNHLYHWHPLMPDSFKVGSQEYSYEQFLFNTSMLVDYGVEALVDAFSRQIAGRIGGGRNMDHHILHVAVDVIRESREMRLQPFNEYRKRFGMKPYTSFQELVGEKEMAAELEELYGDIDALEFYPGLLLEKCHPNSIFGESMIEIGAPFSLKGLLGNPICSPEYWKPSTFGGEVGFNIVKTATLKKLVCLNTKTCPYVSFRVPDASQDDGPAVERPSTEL
As to the kind of experiment: Safetyscreen: COX-1. Type of assay: biochemical. To be noted: read-out: % Inh. Cyclooxygenase COX-1.

The target in a further assay is T3, Progesterone PR-B (Homo sapiens, UniProt P06401).
T3 construct: Eurofins Cereps Panlabs (contract panel)
T3 sequence (P06401 whole entry): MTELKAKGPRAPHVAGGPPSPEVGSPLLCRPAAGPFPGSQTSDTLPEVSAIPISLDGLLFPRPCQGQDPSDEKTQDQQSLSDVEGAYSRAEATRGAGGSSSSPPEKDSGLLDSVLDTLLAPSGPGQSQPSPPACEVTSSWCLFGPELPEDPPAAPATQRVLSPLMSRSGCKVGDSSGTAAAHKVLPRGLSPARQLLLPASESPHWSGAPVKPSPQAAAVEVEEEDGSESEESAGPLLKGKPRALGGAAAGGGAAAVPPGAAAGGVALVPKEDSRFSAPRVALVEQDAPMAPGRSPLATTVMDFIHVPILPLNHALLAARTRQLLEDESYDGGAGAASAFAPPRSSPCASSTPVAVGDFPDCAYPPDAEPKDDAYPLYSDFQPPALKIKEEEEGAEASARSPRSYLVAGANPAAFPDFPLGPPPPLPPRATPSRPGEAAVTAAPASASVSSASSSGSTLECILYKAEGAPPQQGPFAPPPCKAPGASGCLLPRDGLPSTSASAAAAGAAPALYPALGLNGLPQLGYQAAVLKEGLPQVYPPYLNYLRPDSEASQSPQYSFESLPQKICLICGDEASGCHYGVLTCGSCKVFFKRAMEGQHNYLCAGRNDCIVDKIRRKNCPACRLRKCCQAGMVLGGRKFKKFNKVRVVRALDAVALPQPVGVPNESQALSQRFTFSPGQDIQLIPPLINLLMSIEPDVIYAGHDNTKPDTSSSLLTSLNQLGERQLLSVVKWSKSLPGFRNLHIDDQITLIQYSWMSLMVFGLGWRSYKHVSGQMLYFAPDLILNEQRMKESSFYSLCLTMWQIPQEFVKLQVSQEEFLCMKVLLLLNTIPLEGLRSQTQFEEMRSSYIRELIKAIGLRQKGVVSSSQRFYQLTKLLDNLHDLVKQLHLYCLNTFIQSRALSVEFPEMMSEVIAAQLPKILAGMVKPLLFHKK
The experiment in a line: Safetyscreen: Progesterone PR-B. Type of assay: binding. The following applies: read-out: % Inh. Progesterone PR-B.

For a further assay, the system named is Glutamate, Kainate. The experiment in a line: Safetyscreen: Glutamate, Kainate. In kind it is binding, rat. The following applies: 10 μM.
For another assay, the target named is T4, Monoamine Oxidase MAO-A (Homo sapiens, UniProt P21397).
T4 construct: Eurofins Cerep Panlabs (contract panel)
T4 sequence (P21397 whole entry): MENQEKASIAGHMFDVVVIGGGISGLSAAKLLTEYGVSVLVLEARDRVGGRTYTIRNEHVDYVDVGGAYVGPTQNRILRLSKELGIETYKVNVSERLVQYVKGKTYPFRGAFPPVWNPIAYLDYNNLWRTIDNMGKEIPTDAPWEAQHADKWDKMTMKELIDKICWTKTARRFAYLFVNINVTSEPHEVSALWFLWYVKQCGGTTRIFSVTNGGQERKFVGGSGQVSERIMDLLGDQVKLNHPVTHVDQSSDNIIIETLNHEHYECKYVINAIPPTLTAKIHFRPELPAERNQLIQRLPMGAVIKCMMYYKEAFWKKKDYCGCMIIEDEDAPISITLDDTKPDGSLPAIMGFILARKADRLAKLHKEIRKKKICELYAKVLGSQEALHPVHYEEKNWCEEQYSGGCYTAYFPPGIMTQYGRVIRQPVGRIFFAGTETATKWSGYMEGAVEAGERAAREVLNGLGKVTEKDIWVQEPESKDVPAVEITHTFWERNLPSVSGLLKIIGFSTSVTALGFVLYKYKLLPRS
As to the kind of experiment: Safetyscreen: MAO-A. In kind it is biochemical. The following applies: read-out: % Inh. Monoamine Oxidase MAO-A.

In a further assay the target is T5, GABABIA (Homo sapiens, UniProt Q9UBS5).
T5 construct: purchased Eurofins Cereps Panlabs
The experiment in a line: Safetyscreen: GABABIA. The following applies: read-out: % Inh. GABABIA. Type of assay: binding.

A further assay deals with T6, Angiotensin AT1 (Homo sapiens, UniProt P30556).
T6 construct: purchased Eurofins Cereps Panlabs
The experiment in a line: Safetyscreen: Angiotensin AT1. In kind it is binding. The following applies: read-out: % Inh. Angiotensin AT1.

Assay [1] has as its target T7, Serotonin (5-Hydroxytryptamine) 5-HT2A (Homo sapiens, UniProt P28223).
T7 construct: Eurofins Cereps Panlabs (contract panel)
As to the kind of experiment: Safetyscreen: 5-HT2A. To be noted: read-out: % Inh. Serotonin (5-Hydroxytryptamine) 5-HT2A. In kind it is binding.

Another assay has as its system Glutamate, NMDA, Glycine. The experiment in a line: Safetyscreen: NMDA, Glycine. Type of assay: binding, rat. The following applies: 10 μM.
The subject of another assay is Huh1 tumors. As to the kind of experiment: Huh1 tumors in nude mice. To be noted: huh1 in immunodeficient mice; i.p, 10 mg/kg every day. In kind it is in vivo, mouse. The protocol: FIG. 27A: Huh1 tumor-bearing nude mice were treated with C86 (i.p, 10 mg/kg) every day. Three or more independent experiments with at least three replicates per sample type. Two-tailed T test. *p<0.05, **p<0.01, ***p<0.001. FIG. 27B: Equal numbers of Raldh1-KO Huh7 and parental Huh7 cells were seeded and viable cells counted over time. […] FIG. 27C: NU/J mice harboring flank Huh7 tumors were treated i.p with C86 daily or with liposomal chlodronate (CloLipo, 200 μl/mouse) every four days. Tumors were harvested 13 days post tumor induction and analyzed for the frequency (left graph) and number (right graph) of the macrophages (CD45+ F4/80+) under different treatment conditions (X-axis). Three or more independent experiments with at least three replicates per sample type. Two-tailed T test. *p<0.05, **p<0.01, ***p<0.001. FIG. 27D: Pictures depicting size differences amongst tumors in experiment outlined in FIG. 26G. […]
Cultured Huh7, Huh1, Hepa 1-6, Hep55, and FS (as indicated in figure legends) tumor cells were detached using 0.25% trypsin (Gibco, catalog #25200056), washed once with 1×PBS, and counted before implantation. […] Tumor dimensions were measured using a caliper starting at the day indicated in the accompanying figure legend and every two to three days thereafter; volume was calculated by using formula Length*Width^2/2. […]

For assay [2], the target named is T8, Serotonin (5-Hydroxytryptamine) 5-HT1B (Homo sapiens, UniProt P28222).
T8 construct: Eurofins Cereps Panlabs (contract panel)
As to the kind of experiment: Safetyscreen: 5-HT1B. The following applies: read-out: % Inh. Serotonin (5-Hydroxytryptamine) 5-HT1B. In kind it is binding.

Assay [3] concerns Calcium Channel L-Type, Phenylalkylamine. As to the kind of experiment: Safetyscreen: Ca channel L-type, phenylalkylamine. Type of assay: binding, rat. To be noted: 10 μM.
The target of assay [4] is T9, Nicotinic Acetylcholine α1, Bungarotoxin (Homo sapiens, UniProt P02708+P07510+Q07001).
T9 construct: Eurofins Cereps Panlabs (contract panel)
T9 sequence (P11230 24-501): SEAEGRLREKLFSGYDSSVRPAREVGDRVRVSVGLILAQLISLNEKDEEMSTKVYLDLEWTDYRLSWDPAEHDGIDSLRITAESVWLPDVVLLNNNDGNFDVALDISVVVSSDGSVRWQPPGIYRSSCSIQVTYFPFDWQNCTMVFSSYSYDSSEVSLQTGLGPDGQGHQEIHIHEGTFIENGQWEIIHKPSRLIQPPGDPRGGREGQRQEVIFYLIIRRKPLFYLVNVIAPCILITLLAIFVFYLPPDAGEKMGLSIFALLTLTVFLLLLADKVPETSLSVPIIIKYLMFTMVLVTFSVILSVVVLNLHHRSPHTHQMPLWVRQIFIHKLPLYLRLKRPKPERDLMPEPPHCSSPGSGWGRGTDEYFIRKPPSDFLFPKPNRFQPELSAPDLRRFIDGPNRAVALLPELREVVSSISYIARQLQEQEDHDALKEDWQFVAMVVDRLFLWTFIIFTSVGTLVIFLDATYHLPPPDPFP
T9 sequence (P02708 21-457): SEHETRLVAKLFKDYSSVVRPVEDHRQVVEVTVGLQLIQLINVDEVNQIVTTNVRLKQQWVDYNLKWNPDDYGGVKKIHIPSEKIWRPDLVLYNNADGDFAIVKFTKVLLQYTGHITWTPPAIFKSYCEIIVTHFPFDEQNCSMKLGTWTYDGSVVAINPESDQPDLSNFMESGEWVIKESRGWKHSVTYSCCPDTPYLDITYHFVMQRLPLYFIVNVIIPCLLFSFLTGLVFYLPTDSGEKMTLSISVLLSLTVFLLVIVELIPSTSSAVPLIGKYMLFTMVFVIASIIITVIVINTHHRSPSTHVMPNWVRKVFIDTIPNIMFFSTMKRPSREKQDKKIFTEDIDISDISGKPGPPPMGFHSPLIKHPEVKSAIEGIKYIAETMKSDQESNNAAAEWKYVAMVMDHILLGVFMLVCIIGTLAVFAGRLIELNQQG
T9 sequence (Q07001 22-517): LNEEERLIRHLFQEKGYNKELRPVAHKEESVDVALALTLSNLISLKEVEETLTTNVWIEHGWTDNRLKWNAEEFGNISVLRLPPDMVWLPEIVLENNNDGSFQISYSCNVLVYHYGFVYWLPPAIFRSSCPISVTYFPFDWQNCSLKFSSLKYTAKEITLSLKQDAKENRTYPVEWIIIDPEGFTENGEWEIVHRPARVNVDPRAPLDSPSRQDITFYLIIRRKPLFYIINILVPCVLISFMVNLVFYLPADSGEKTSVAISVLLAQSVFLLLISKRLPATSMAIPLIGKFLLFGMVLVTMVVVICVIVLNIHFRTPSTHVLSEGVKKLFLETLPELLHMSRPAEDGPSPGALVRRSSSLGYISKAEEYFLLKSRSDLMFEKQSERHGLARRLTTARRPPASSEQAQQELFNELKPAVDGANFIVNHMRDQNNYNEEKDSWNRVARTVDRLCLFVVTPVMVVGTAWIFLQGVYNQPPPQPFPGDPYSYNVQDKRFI
T9 sequence (P07510 23-517): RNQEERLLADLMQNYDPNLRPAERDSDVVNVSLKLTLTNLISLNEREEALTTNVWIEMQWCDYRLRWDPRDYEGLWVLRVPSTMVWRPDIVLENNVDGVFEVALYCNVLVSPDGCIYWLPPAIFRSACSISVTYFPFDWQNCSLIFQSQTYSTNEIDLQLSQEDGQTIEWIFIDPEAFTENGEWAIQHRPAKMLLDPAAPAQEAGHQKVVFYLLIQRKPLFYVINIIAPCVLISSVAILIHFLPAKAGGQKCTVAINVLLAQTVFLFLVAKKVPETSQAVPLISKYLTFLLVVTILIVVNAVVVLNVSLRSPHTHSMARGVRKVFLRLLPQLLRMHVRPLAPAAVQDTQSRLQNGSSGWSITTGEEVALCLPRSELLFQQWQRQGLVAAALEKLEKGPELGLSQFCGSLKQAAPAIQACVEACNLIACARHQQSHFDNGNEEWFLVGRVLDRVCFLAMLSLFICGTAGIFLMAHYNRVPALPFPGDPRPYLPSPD
As to the kind of experiment: Safetyscreen: Nicotinic Acetylcholine α1. Type of assay: binding. To be noted: read-out: % Inh. Nicotinic Acetylcholine α1, Bungarotoxin.

For assay [5], the target named is T10, Protein Tyrosine Kinase, Insulin Receptor (Homo sapiens, UniProt P06213).
T10 construct: Eurofins Cerep Panlabs (contract panel)
The experiment in a line: Safetyscreen: Insulin Receptor kinase. Type of assay: biochemical. To be noted: read-out: % Inh. Protein Tyrosine Kinase, Insulin Receptor.

For assay [6], the system named is Calcium Channel L-Type, Benzothiazepine. The experiment in a line: Safetyscreen: Ca channel L-type, benzothiazepine. The following applies: 10 μM. Type of assay: binding, rat.
The target in a further assay is T11, PPARγ (Homo sapiens, UniProt P37231).
T11 construct: Eurofins Cereps Panlabs (contract panel)
T11 sequence (P37231 whole entry): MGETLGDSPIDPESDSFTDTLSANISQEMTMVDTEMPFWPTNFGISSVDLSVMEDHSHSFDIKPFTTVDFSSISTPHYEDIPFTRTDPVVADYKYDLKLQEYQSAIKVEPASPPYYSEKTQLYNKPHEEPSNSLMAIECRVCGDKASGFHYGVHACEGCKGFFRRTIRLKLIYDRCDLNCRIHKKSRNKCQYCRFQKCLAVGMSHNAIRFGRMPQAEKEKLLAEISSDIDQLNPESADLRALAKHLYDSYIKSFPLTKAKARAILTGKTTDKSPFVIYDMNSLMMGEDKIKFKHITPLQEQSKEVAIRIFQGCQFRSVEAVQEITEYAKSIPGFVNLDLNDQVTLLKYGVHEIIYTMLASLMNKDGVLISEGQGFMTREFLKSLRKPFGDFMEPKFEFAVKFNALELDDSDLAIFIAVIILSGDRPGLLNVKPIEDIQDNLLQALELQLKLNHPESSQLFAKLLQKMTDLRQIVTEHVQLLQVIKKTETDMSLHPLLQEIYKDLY
As to the kind of experiment: Safetyscreen: PPARγ. In kind it is binding.

Molecules are shown by their SMILES.

T1 sequence (P15823 whole entry): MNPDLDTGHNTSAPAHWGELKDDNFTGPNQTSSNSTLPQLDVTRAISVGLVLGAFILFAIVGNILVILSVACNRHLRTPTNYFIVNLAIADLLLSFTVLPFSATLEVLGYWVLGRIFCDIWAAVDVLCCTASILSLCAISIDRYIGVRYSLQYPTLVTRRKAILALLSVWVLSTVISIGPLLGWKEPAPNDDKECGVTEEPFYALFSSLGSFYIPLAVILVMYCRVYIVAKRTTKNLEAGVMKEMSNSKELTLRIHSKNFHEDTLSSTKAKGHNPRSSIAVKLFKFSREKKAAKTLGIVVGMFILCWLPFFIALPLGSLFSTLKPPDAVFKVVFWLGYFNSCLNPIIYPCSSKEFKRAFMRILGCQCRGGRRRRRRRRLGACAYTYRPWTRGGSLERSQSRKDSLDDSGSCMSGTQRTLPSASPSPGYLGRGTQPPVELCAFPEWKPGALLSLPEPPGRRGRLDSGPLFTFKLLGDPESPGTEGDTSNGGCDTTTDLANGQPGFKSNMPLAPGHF

On to `CS(=O)(=O)N1CCN(C(=O)c2cnc3ccc(F)cc3c2N2CCC(C#N)(c3ccccc3)CC2)CC1` [Compound C-86, 1-(6-fluoro-3-(4-(methylsulfonyl)piperazine-1-carbonyl)quinolin-4-yl)-4-phenylpiperidine-4-carbonitrile], for which, in the assay with Transporter, Adenosine, the “% Inh. Transporter, Adenosine” value is 56%. The inhibition at 10 µM amounted to 6% at Adrenergic α1B; 6% at Cyclooxygenase COX-1; 1% on Progesterone PR-B; 2% at Monoamine Oxidase MAO-A; 7% on GABABIA; 19% on Angiotensin AT1. The inhibition at 10 µM in assay [1] is 36%; in assay [2], -21%; in assay [4] it was 2%; in assay [5] it was 0%; against PPARγ it was 12%. The “RALDH activity, Aldered assay, in HCC cells” value in the assay with SNU398 human HCC cells (FIGS. 7-8) is “significantly reduced RALDH activity”. For the same molecule, the “RALDH activity as detected by Aldered (Aldefluor) assay” value with SNU398 human HCC cells (SNU398 cells in vitro, 100 nM, DMSO control) is reported as “abrogated”. In addition, in the assay with Glutamate, Kainate, the “% Inh. Glutamate, Kainate” value was determined as 11%. Further, the “% Inh. Glutamate, NMDA, Glycine” value in the assay with Glutamate, NMDA, Glycine was found to be 20%. The tumor inhibition entry with Huh1 tumors is “significant tumor inhibition”. For the same molecule, in assay [3], the “% Inh. Calcium Channel L-Type, Phenylalkylamine” value stood at 21%. For the same molecule, the “% Inh. Calcium Channel L-Type, Benzothiazepine” value in [6] is listed as −3%.
